For test [1], the target named is T1, hFASN enzyme (full length) (Homo sapiens, UniProt P49327).
T1 construct: 10 μL hFASN enzyme (full length, 300 ng, purified in house); made in house
Put plainly: Fatty Acid Synthase (FASN) Inhibition Scintillation Proximity Assay. Conditions: for IC50: mean where tested more than once, ~ = standard error of pIC50 larger than 0.5; for inhibition at 10 µM: read-out: FASN % Effect @1E−05M. The class given is biochemical. On the procedure:
In this assay, inhibition of FASN activity is measured using ^3H-acetyl-CoA and malonyl-CoA as substrates. ^3H-Acetyl CoA is converted to ^3H-palmitate through a series of reactions by the FASN protein, which contains 7 functional domains and carries out 7 enzymatic reactions to ultimately produce ^3H-palmitate. The assay principle is based upon the fact that ^3H-acetyl-CoA is hydrophilic and the end product, ^3H-palmitate is hydrophobic.
10 μL assay buffer (100 mM KH2PO4 pH 7.5, 1 mM DTT) (20 μL in blanks) was added to a 384-well white Opti Plate plate (Perkin Elmer). 0.9 μL test compound (at concentrations of 30 μM, 10 μM, 3 μM, 1 μM, 0.30 μM, 0.10 μM, 0.03 μM and 0.01 μM)/DMSO and 10 μL hFASN enzyme (full length, 300 ng, purified in house) or 10 μL assay buffer was added to the wells. Then 10 μL 450 μM NADPH (Sigma N7505), 18.75 μM [^3H]-acetyl-CoA (Perkin Elmer NET-290L), 150 μM malonyl-CoA (Sigma M4263) were added, mixed and incubated at room temperature for 60 minutes. The reaction was stopped by adding 20 μL Streptavidin coupled imaging beads (25 mg/ml). After incubation for 30 minutes at room temperature in the dark, the 384 well plate was centrifuged at 1500 rpm for 3 minutes and was measured after at least 24 hrs by the LEADseeker™, measuring emission using a 610±20 nm pass filter. (Bays, N. W., et al., “A simplified scintillation proximity assay for fatty acid synthase activity: development and comparison with other FAS activity assays”, J. Biomol. Screen, 2009, pp 636-642, Vol. 14(6).)
(§1) Raw data generated by the instrument were normalized to % Controlmin values, which were calculated as: % Controlmin=100*(x−mLC)/(mHC−mLC)
(§2) where mLC and mHC were the means of the low control wells and high control wells on the plate, after manual exclusion of outliers. A plot of Controlmin versus test compound concentration was fitted to a 4-parameter logistic curve using a non-linear least squares regression method. From the plot, an IC50 (concentration at which 50% inhibition is achieved) was calculated. pIC50 values were calculated as −log(IC50), when IC50 is expressed in molar units.
In general terms: In a scintillation proximity assay essentially only radioactivity close to the scintillant gives light.

Test [2] has as its target T2, FASN Keto-reductase Domain (Homo sapiens, UniProt P49327).
T2 construct: 10 μL hFASN enzyme (full length, 300 ng, purified in house) and 360 μM NADPH; made in house
Put plainly: Fatty Acid Synthase Keto-Reductase Domain (FASN KR) Inhibition. The test is classed as biochemical. Particulars: mean where tested more than once; read-out: FASN K-R Domain pIC50 (converted). Here is the method:
10 μL assay buffer (100 mM KH2PO4 pH 7.5) was added to a 384-well clear plate (costar 3702). 0.3 μL compound (at concentrations of 30 μM, 10 μM, 3 μM, 1 μM, 0.30 μM, 0.10 μM, 0.03 μM and 0.01 μM)/DMSO, 10 μL hFASN enzyme (full length, 300 ng, purified in house) and 360 μM NADPH (except in blank) were then added. Then, 10 μL 180 mM ethyl acetoacetate (Aldrich 688983) was added, mixed and immediately thereafter, the absorbance at 340 nm (T1) by Multiscan (Labsystems) was measured. After 20 minutes incubation at room temperature the plate was measured again (T2).
The decrease in absorbance was calculated as (Absorbance before incubation T1)−(Absorbance following incubation T2).
as §1, §2

Test [3] deals with A2780 ovarian cells. The experiment in a line: A2780 Ovarian Cell Proliferation Assay in Lipid Reduced Medium, without Palmitate. The test is classed as cell-based. Particulars: Homo sapiens, A2780; lipid reduced medium, without palmitate, 96 h, MTT; read-out: Proliferation A2780 w/o Palmitate pIC50 (converted). Here is the method:
(§3) The biological assays described below correspond to comparative assays for ovarian cell proliferation. […] Compounds active in the absence of palmitate would not be expected to be active in the control.
(§4) 2500 cells were seeded in a 96-well clear well plate in 200 μL RPMI1640 with 10% Fetal Calf Serum (Hyclone), and incubated at 37° C., 5% CO2. Blanks were wells without cells. The next day the culture medium was aspirated and replaced by 160 μL culture medium with 10% Lipid-Reduced Serum (LRS, Hyclone). 20 μL test compound (at concentrations of 30 μM, 10 μM, 3 μM, 1 μM, 0.30 μM, 0.10 μM, 0.03 μM and 0.01 μM)/DMSO dilution followed by 20 μL ethanol-BSA solution were added to a final concentrations of 0.2% DMSO, 0.2% fatty-acid-free BSA, 0.25% ethanol. After 96 h incubation an MTT assay was performed. The absorbance was measured at 544 nm on a SPECTRAMAX.
as §1, §2
(§5) Representative compounds of the present invention were tested according to the procedure as described in Biological Example 3 above, with results as listed in Table BIO-3, below.

Test [4] deals with A2780 ovarian cells. Put plainly: A2780 Ovarian Cell Proliferation Assay in Lipid Reduced Medium, with Palmitate (control). The class given is cell-based. Conditions: Homo sapiens, A2780; lipid reduced medium, 25 μM palmitate, 96 h, MTT; read-out: Proliferation A2780 with Palmitate pIC50 (converted). Here is the method: as §3
as §4, with “palmitate-BSA” for “ethanol-BSA”, “DMSO, 25 μM palmitate (Sigma, P0500, 10 mM stock solution in ethanol)” for “DMSO,”, “incubation,” for “incubation”
A best fit curve was fitted by a minimum sum of squares method, plotting Controlmin versus test compound concentration. From the plot, an IC50 (concentration at which 50% inhibition is achieved) was calculated. pIC50 values, presented in the Table below, were calculated as −log(IC50).
as §5

T2 sequence (P49327 whole entry, the tested form may be a part): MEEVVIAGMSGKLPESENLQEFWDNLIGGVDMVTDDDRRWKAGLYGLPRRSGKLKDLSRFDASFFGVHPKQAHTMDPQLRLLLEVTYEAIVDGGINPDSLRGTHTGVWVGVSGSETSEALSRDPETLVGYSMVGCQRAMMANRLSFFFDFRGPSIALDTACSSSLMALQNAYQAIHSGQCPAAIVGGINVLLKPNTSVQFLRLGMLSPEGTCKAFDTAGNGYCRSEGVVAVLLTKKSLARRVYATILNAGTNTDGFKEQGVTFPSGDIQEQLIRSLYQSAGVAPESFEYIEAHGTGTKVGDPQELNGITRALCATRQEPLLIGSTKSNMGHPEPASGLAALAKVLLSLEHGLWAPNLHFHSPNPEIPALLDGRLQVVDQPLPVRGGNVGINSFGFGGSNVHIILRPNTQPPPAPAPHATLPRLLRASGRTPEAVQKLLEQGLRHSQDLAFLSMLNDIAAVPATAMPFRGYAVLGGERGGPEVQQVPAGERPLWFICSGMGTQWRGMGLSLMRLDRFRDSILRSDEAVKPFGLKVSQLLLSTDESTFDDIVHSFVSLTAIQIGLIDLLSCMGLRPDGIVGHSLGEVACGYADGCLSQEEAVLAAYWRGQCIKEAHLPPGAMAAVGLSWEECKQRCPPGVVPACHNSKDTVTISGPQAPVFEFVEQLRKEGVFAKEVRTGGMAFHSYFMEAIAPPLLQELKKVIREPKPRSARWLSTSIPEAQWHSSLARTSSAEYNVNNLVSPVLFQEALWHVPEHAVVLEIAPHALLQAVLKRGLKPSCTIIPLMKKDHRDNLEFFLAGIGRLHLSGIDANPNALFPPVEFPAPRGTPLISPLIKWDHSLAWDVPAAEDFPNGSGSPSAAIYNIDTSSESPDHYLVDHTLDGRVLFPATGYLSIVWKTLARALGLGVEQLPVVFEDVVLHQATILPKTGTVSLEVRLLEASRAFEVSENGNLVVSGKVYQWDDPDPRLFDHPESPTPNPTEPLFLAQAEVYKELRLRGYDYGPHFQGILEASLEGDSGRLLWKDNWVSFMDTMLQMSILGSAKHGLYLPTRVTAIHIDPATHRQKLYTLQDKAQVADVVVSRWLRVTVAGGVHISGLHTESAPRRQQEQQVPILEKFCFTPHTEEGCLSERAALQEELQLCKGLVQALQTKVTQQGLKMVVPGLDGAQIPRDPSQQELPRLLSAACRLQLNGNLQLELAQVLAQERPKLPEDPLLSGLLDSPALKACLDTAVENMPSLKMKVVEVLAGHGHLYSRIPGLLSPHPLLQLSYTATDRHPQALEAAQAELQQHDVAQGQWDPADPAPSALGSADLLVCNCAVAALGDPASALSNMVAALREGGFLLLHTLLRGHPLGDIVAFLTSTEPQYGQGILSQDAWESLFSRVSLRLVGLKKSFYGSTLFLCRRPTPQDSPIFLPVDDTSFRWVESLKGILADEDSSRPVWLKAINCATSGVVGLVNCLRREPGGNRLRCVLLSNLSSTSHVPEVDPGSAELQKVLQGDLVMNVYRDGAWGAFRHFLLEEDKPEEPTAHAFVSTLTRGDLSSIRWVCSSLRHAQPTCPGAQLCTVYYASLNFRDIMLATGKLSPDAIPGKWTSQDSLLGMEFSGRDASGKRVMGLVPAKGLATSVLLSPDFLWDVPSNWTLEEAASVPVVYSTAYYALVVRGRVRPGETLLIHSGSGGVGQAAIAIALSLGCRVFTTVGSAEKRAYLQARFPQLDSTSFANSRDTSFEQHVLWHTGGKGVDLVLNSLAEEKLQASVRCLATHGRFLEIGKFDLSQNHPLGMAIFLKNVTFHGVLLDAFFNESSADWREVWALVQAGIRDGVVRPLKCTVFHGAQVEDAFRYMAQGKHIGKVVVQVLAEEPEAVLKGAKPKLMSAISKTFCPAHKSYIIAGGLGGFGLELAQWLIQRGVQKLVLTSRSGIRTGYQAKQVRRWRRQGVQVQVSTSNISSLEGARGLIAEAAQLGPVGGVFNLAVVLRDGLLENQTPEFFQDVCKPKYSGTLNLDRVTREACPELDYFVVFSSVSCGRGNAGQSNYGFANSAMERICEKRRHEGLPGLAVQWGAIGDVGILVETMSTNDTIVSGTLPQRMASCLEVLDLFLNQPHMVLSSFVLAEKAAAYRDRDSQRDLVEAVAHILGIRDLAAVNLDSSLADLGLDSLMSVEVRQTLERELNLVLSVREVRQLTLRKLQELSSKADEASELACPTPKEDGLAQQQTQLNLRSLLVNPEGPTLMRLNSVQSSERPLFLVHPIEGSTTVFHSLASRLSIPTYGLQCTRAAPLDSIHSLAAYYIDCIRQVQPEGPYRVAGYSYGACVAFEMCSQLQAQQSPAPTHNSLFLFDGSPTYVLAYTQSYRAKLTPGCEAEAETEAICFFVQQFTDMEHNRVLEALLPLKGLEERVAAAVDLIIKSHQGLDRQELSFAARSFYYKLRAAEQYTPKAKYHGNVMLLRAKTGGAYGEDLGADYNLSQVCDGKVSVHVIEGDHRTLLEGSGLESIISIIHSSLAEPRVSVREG
T1 sequence (P49327 whole entry): as the sequence (P49327 whole entry, the tested form may be a part) above

On to `Cc1ccc(C(=O)N2CC[C@H](c3ccc(-n4ccnc4)cc3)[C@H](C)C2)cc1NC(=O)c1ccc(Cl)nc1` (racemic) [Compound 53, (±)-N-(5-((3S,4S)-4-(4-(1H-imidazol-1-yl)phenyl)-3-methylpiperidine-1-carbonyl)-2-methylphenyl)-6-chloronicotinamide], for which the IC50 in test [1] was 251 nM; in test [2], 562 nM; in the test with A2780 ovarian cells [3] it was 603 nM; in the test with A2780 ovarian cells [4], 8.51 µM. For the same compound, the inhibition at 10 µM in test [1] worked out at 101%.

Take `Cc1ccc(C(=O)N2CC[C@H](c3ccc(-n4ccnc4)cc3)[C@@H](C)C2)cc1NC(=O)c1ccc(Cl)nc1` (racemic) [Compound 54, (±)-N-(5-(4-((3R,4S)-4-(1H-imidazol-1-yl)phenyl)-3-methylpiperidine-1-carbonyl)-2-methylphenyl)-6-chloronicotinamide]: the IC50 in test [1] was 234 nM; in test [2] it was 288 nM; in the test with A2780 ovarian cells [3], 204 nM; in the test with A2780 ovarian cells [4], greater than 10 µM. The inhibition at 10 µM in test [1] is 104%.

Turning to `Cc1ccc(C(=O)N2CC[C@H](c3ccc(-c4ccnn4C)cc3)[C@H](C)C2)cc1NC(=O)c1ccc(NC(C)C)nc1` (racemic) [Compound #76, (±)-6-(Isopropylamino)-N-(2-methyl-5-((3S,4S)-3-methyl-4-(4-(1-methyl-1H-pyrazol-5-yl)phenyl)piperidine-1-carbonyl)phenyl)nicotinamide], the IC50 in test [1] is 631 nM; in test [2], 1380 nM; in the test with A2780 ovarian cells [3], 1050 nM; in the test with A2780 ovarian cells [4], 2 µM. For the same compound, the inhibition at 10 µM in test [1] came to 91%.

Consider `CC(C)Nc1ccc(C(=O)Nc2cc(C(=O)N3CC[C@H](c4ccc(-c5ccnn5C)cc4)[C@@H](O)C3)ccc2Cl)cn1` (racemic) [Compound #77, (±)-N-(2-chloro-5-((3R,4R)-3-hydroxy-4-(4-(1-methyl-1H-pyrazol-5-yl)phenyl)piperidine-1-carbonyl)phenyl)-6-(isopropylamino)nicotinamide], for which the IC50 in test [1] is 178 nM; in test [2], 1070 nM; with A2780 ovarian cells [3], 851 nM; in the test on A2780 ovarian cells [4] it was 15.1 µM. For the same compound, in test [1], the inhibition at 10 µM was found to be 105%.

For `Cc1ccc(C(=O)N2CC[C@H](c3ccc(-c4ccnn4C)cc3)[C@@H](C)C2)cc1NC(=O)c1ccc(NC(C)C)nc1` (racemic) [Compound #81, (±)-6-(isopropylamino)-N-(2-methyl-5-((3R,4S)-3-methyl-4-(4-(1-methyl-1H-pyrazol-5-yl)phenyl)piperidine-1-carbonyl)phenyl)nicotinamide], the IC50 in test [1] was roughly 32.4 nM; in test [2], 100 nM; in the test on A2780 ovarian cells [3], 110 nM; with A2780 ovarian cells [4] it was 4.27 µM. Besides, the inhibition at 10 µM in test [1] was 120%.

For the compound `Cc1ccc(C(=O)N2CC[C@H](c3ccc(-c4ccnn4C)cc3)[C@@H](C)C2)cc1NC(=O)c1ccc(Cl)nc1` (racemic) [Compound #110, (±)-6-Chloro-N-(2-methyl-5-((3R,4S)-3-methyl-4-(4-(1-methyl-1H-pyrazol-5-yl)phenyl)piperidine-1-carbonyl)phenyl)nicotinamide], the IC50 was 19.1 nM in test [1], 132 nM in test [2], 174 nM in the test with A2780 ovarian cells [3] and 6.31 µM with A2780 ovarian cells [4]. Further, in test [1], the inhibition at 10 µM turned out to be 115%.

As to `Cc1ccc(C(=O)N2CC[C@H](c3ccc(-c4ccnn4C)cc3)[C@H](C)C2)cc1NC(=O)c1ccc(Cl)nc1` (racemic) [Compound #111, (±)-6-chloro-N-(2-methyl-5-((3S,4S)-3-methyl-4-(4-(1-methyl-1H-pyrazol-5-yl)phenyl)piperidine-1-carbonyl)phenyl)nicotinamide], the IC50 in test [1] was 513 nM; in test [2] it was 1780 nM; with A2780 ovarian cells [3], 1620 nM; in the test on A2780 ovarian cells [4], 4.47 µM. In addition, the inhibition at 10 µM in test [1] was 96%.

Consider `CCC(=O)NC1CC[C@@H](C(=O)Nc2cc(C(=O)N3CC(c4ccc(-c5ccnn5C)cc4)C3)ccc2C)C1` (stereo in doubt) [Compound 64, (1R,3S)—N-(2-methyl-5-(3-(4-(1-methyl-1H-pyrazol-5-yl)phenyl)azetidine-1-carbonyl)phenyl)-3-propionamidocyclopentanecarboxamide], for which the IC50 was 34.7 nM in test [1], 85.1 nM in test [2], roughly 302 nM in the test with A2780 ovarian cells [3] and greater than 10 µM in the test on A2780 ovarian cells [4]. In test [1], the inhibition at 10 µM worked out at 102%.

Take `Cc1ccc(C(=O)N2CC(c3ccc(-c4ccncc4)cc3)C2)cc1NC(=O)c1ccc(Cl)nc1` [Compound 3, 6-chloro-N-(2-methyl-5-(3-(4-(pyridin-4-yl)phenyl)azetidine-1-carbonyl)phenyl)nicotinamide]: the IC50 is 25.7 nM in test [1], 64.6 nM in test [2], 138 nM in the test with A2780 ovarian cells [3] and 5.25 µM in the test with A2780 ovarian cells [4]. Also, in test [1], the inhibition at 10 µM came out at 106%.

With `Cc1ccc(C(=O)N2CCC(c3ccc(-c4cnn(C)c4)cc3)CC2)cc1NC(=O)c1ccccc1` [Compound 115, N-(2-methyl-5-(4-(4-(1-methyl-1H-pyrazol-4-yl)phenyl)piperidine-1-carbonyl)phenyl)benzamide], the inhibition at 10 µM in test [1] amounted to 99%. The IC50 with A2780 ovarian cells [3] was 162 nM; in the test on A2780 ovarian cells [4], greater than 10 µM.

For `COc1ncccc1C(=O)Nc1cc(C(=O)N2CCC(c3ccc(-c4cnn(C)c4)cc3)CC2)ccc1C` [Compound 118, 2-methoxy-N-(2-methyl-5-(4-(4-(1-methyl-1H-pyrazol-4-yl)phenyl)piperidine-1-carbonyl)phenyl)nicotinamide], the IC50 is 288 nM in test [2], 389 nM in the test with A2780 ovarian cells [3] and 2.75 µM in the test with A2780 ovarian cells [4].

For `COc1ccc(C(=O)N2CC(c3ccc(-c4cnn(C)c4)cc3)C2)cc1NC(=O)c1ccc(Cl)nc1` [Compound 183, 6-chloro-N-(2-methoxy-5-(3-(4-(1-methyl-1H-pyrazol-4-yl)phenyl)azetidine-1-carbonyl)phenyl)nicotinamide], the inhibition at 10 µM in test [1] amounted to 98%. The IC50 is 407 nM in the test with A2780 ovarian cells [3] and greater than 10 µM in the test with A2780 ovarian cells [4].

Source of the values: patent US9562035B2, “Benzamide derivative useful as FASN inhibitors for the treatment of cancer” (Janssen Pharmaceutica NV, priority 2013, dated 2017).
